Measured values published in ChEMBL document CHEMBL1146080, “Novel, achiral 1,3,4-benzotriazepine analogues of 1,4-benzodiazepine-based CCK(2) antagonists that display high selectivity over CCK(1) receptors” (J Med Chem, 2006).
The source made the active and inactive calls. The rule behind the calls is not given here.

Columns and labels:
[1] = molecular target: T1, Cholecystokinin receptor type A (Homo sapiens, UniProt P32238); assay: Displacement of [3H]L-364718 from human recombinant CCK1 receptor expressed in PC3 cell line; format: cell-based, PC-3
T1 sequence (P32238 whole entry): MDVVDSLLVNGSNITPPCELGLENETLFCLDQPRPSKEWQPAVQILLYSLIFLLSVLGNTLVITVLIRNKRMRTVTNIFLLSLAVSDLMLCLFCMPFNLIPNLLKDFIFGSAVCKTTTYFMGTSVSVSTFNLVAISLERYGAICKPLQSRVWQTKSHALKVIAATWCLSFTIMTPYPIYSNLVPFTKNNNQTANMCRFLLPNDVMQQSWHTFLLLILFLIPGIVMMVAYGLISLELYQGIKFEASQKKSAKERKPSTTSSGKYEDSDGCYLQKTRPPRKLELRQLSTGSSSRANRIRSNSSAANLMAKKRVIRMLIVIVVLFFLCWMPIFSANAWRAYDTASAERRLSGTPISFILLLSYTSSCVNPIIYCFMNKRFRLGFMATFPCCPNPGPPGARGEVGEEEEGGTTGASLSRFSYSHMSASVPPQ

[2] = molecular target: T2, Gastrin/cholecystokinin type B receptor (Homo sapiens, UniProt P32239); assay: Displacement of [125I]BH-CCK-8S from human recombinant CCK2 receptor expressed in NIH3T3 cells; format: cell-based
T2 sequence (P32239 whole entry): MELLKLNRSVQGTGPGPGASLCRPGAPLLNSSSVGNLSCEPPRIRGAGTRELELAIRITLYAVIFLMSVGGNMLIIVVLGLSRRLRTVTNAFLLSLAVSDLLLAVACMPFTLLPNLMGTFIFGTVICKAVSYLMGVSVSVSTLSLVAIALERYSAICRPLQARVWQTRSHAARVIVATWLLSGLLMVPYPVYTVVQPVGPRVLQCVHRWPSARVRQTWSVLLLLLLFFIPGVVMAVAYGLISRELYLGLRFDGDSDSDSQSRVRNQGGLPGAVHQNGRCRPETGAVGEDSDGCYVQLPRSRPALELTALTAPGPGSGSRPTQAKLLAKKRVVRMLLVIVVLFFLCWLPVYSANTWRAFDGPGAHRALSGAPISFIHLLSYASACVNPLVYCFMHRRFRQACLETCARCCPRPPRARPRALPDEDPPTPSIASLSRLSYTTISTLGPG

[3] = molecular target: T3, Gastrin/cholecystokinin type B receptor (Canis lupus familiaris, UniProt P30552); assay: Binding affinity to canine CCK2 receptor
T3 sequence (P30552 whole entry): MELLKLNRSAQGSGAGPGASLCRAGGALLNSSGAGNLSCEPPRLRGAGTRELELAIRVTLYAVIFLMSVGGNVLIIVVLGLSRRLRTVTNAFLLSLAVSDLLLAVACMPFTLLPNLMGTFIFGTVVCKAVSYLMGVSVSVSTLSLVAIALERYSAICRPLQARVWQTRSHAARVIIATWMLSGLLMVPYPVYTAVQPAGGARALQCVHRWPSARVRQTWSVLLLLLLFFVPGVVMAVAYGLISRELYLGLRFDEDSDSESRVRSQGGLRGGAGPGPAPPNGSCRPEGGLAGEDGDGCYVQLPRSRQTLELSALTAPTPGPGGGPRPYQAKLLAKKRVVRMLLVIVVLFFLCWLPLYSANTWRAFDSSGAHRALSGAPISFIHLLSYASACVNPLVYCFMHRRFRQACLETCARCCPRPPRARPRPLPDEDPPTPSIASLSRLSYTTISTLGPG

[4] = molecular target: T4, Gastrin/cholecystokinin type B receptor (Rattus norvegicus, UniProt P30553); assay: Affinity for CCK2 receptor assessed by inhibition of pentagastrin-stimulated acid secretion in perfused rat stomach; format: functional, tissue-based; conditions: read-out: pA2 (converted)
T4 sequence (P30553 whole entry): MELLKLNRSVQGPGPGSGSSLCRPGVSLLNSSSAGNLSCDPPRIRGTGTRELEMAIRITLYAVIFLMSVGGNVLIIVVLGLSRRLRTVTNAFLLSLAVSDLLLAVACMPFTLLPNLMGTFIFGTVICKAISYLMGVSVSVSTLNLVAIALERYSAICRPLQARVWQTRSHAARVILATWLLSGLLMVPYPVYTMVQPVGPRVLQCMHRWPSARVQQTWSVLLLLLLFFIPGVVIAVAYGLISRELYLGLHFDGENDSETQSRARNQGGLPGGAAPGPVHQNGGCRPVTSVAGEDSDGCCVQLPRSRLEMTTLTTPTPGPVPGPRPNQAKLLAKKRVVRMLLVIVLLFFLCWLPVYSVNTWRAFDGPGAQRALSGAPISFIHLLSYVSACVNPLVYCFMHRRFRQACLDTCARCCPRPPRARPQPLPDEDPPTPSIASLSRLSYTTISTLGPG

[5] = molecular target: T5, Cholecystokinin receptor type A (Homo sapiens) (UniProt P32238); assay: Inhibition of [3H]L-364718 binding to human recombinant CCK1 receptor expressed in PC3 cell line at 10 uM; format: cell-based; conditions: PC-3
T5 sequence (whole entry): T1 sequence (P32238 whole entry)

[6] = molecular target: T5, Cholecystokinin receptor type A (Homo sapiens); assay: Inhibition of [3H]L-364718 binding to human recombinant CCK1 receptor expressed in CHO cell line at 10 uM; format: cell-based
[7] = molecular target: T6, Gastrin/cholecystokinin type B receptor (Rattus norvegicus) (UniProt P30553); assay: Affinity for CCK2 receptor assessed by inhibition of pentagastrin-stimulated acid secretion in perfused rat stomach at 1 uM; format: functional, tissue-based
T6 sequence (whole entry): T4 sequence (P30553 whole entry)

[8] = molecular target: T1, Cholecystokinin receptor type A; assay: Displacement of [3H]L-364718 from human recombinant CCK1 receptor expressed in CHO cell line; format: cell-based

Row | Ki [1] | Ki [2] | Compound | also measured
1 |  | 2510 nM | CNc1cccc(NC(=O)CN2N=C(c3ccccn3)c3ccccc3N(CC(=O)N3CCCC3)C2=O)c1 | 
2 |  | 74.1 nM | CNc1cccc(NC(=O)CN2N=C(c3ccccc3)c3ccccc3N(CC(=O)C(C)(C)C)C2=O)c1 | inhibition [5]: 21%
3 |  | 6.03 nM | CN(C)c1cccc(NC(=O)CN2N=C(C3CCCCC3)c3ccccc3N(CC(=O)C(C)(C)C)C2=O)c1 | inhibition [5]: 16%
4 |  | 195 nM | CNc1cccc(NC(=O)CN2N=C(c3ccccn3)c3ccccc3N(CC(=O)C(C)(C)C)C2=O)c1 | inhibition [5]: 22%; Kb [4]: 224 nM
5 |  | 8.91 nM | Cc1cccc(NC(=O)CN2N=C(C3CCCCC3)c3ccccc3N(CC(=O)C(C)(C)C)C2=O)c1 | inhibition [5]: 27%; pA2 [7]: inactive
6 | > 10000 nM | 7.94 nM | CNc1cccc(NC(=O)CN2N=C(C3CCCCC3)c3ccccc3N(CC(=O)C(C)(C)C)C2=O)c1 | 
7 |  | 288 nM | CNc1cccc(NC(=O)CN2N=C(c3ccccn3)c3ccccc3N(CC(=O)c3ccccc3C)C2=O)c1 | 

The remaining lines, values behind:

Row | Compound | Ki [1] | Ki [2] | also measured
8 | CC(C)(C)C(=O)CN1C(=O)N(CC(=O)Nc2cccc(C(=O)O)c2)N=C(C2CCCCC2)c2ccccc21 | 11200 nM | 5.13 nM | Ki [3]: 12.3 nM; Kb [4]: 0.977 nM
9 | CNc1cccc(NC(=O)C[C@H]2N=C(C3CCCCC3)c3ccccc3N(CC(=O)C(C)(C)C)C2=O)c1 | 724 nM | 13.2 nM | Kb [4]: 28.8 nM
10 | CC(C)(C)C(=O)CN1C(=O)N(CC(=O)Nc2cccc(-n3ccnc3)c2)N=C(C2CCCCC2)c2ccccc21 |  | 9.12 nM | inhibition [6]: 57%
11 | CC(C)(C)C(=O)CN1C(=O)N(CC(=O)Nc2cccc(N3CCCC3)c2)N=C(C2CCCCC2)c2ccccc21 | > 10000 nM | 15.8 nM | 
12 | COc1cccc(NC(=O)CN2N=C(C3CCCCC3)c3ccccc3N(CC(=O)C(C)(C)C)C2=O)c1 |  | 5.5 nM | pA2 [7]: inactive; inhibition [6]: 46%
13 | Cc1cccc(NC(=O)N[C@@H]2N=C(c3ccccc3)c3ccccc3N(C)C2=O)c1 [L-365260] | 174 nM |  | 
14 | CNc1cccc(NC(=O)N[C@@H]2N=C(c3ccccn3)c3ccccc3N(CC(=O)C(C)(C)C)C2=O)c1 [NETAZEPIDE] | 30.2 nM | 0.138 nM | Kb [4]: 0.0794 nM
15 | CNc1cccc(NC(=O)C[C@@H]2N=C(C3CCCCC3)c3ccccc3N(CC(=O)C(C)(C)C)C2=O)c1 | 1170 nM | 6.03 nM | Kb [4]: 28.2 nM
16 | CC(C)(C)C(=O)CN1C(=O)N(CC(=O)Nc2cccc(CO)c2)N=C(C2CCCCC2)c2ccccc21 | 5890 nM | 15.1 nM | 
17 | CC(C)(C)C(=O)CN1C(=O)N(CC(=O)Nc2cccc(N3CCOCC3)c2)N=C(C2CCCCC2)c2ccccc21 |  | 16.6 nM | inhibition [6]: 42%
18 | CC(C)(C)C(=O)CN1C(=O)N(CC(=O)Nc2cccc(O)c2)N=C(C2CCCCC2)c2ccccc21 |  | 13.2 nM | Ki [8]: 1510 nM
19 | CNCCN(C)c1cccc(NC(=O)CN2N=C(C3CCCCC3)c3ccccc3N(CC(=O)C(C)(C)C)C2=O)c1 |  | 29.5 nM | Ki [8]: 8710 nM
20 | CC(C)(C)C(=O)CN1C(=O)N(CC(=O)Nc2cccc(N)c2)N=C(C2CCCCC2)c2ccccc21 |  | 26.9 nM | inhibition [6]: 40%
21 | CCOCCNc1cccc(NC(=O)CN2N=C(C3CCCCC3)c3ccccc3N(CC(=O)C(C)(C)C)C2=O)c1 | > 10000 nM | 44.7 nM | 
